In the supplement of paper PMC10883282:
± gives the standard deviation of the averaged measurements.

Tests used:
Test in all cases: relative viability vs DMSO control (72 h) (fraction); higher = more viable cells
HT1080 = system: HT1080
In short: (§1)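 Relative viability is percent growth read by ATPLite and averaged over up to triplicate wells. Sarcoma cells were seeded in 384-well plates to reach 80–90% confluence and given 2.5 µl of serially diluted compound after 24 h, from source plates of 10 mM to 0.0002 mM. Incubation lasted 72 h at 37 °C, 5% CO2, with 0.1% DMSO vehicle and a 5 µM positive control, and the data were rescaled so 1 equals full and 0 equals none.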

KHOS-NP = system: KHOS-NP
In short: as §1

SK-ES-1 = system: SK-ES-1
In short: as §1

RD-ES = system: RD-ES
In short: as §1

SW982 = system: SW982
In short: as §1

KHOS-240S = system: KHOS-240S
In short: as §1

G401 = system: G401
In short: as §1

A204 = system: A204
In short: as §1

SW1353 = system: SW1353
In short: as §1

SW872 = system: SW872
In short: as §1

SYO-1 = system: SYO-1
In short: as §1

SW684 = system: SW684
In short: as §1

CO[C@H]1C[C@@H]2CC[C@@H](C)[C@@](O)(O2)C(=O)C(=O)N2CCCC[C@H]2C(=O)O[C@H]([C@H](C)C[C@@H]2CC[C@@H](OC(=O)C(C)(CO)CO)[C@H](OC)C2)CC(=O)[C@H](C)/C=C(\C)[C@@H](O)[C@@H](OC)C(=O)[C@H](C)C[C@H](C)/C=C/C=C/C=C/1C [Temsirolimus]
Details	relative viability
A204, 0.00017 µM	0.925 ± 0.03
A204, 0.00051 µM	0.762 ± 0.11
A204, 0.00152 µM	0.622 ± 0.032
A204, 0.00457 µM	0.551 ± 0.0085
A204, 0.01372 µM	0.534 ± 0.013
A204, 0.04115 µM	0.504 ± 0.019
A204, 0.1235 µM	0.476 ± 0.016
A204, 0.3704 µM	0.453 ± 0.013
A204, 1.111 µM	0.431 ± 0.012
A204, 3.333 µM	0.392 ± 0.014
A204, 10 µM	0.334 ± 0.011
G401, 0.00017 µM	0.945 ± 0.038
G401, 0.00051 µM	0.917 ± 0.049
G401, 0.00152 µM	0.869 ± 0.048
G401, 0.00457 µM	0.82 ± 0.064
G401, 0.01372 µM	0.766 ± 0.033
G401, 0.04115 µM	0.706 ± 0.022
G401, 0.1235 µM	0.665 ± 0.011
G401, 0.3704 µM	0.637 ± 0.025
G401, 1.111 µM	0.621 ± 0.0071
G401, 3.333 µM	0.586 ± 0.023
G401, 10 µM	0.396 ± 0.034
HT1080, 0.00017 µM	1.02 ± 0.045
HT1080, 0.00051 µM	1.01 ± 0.035
HT1080, 0.00152 µM	1.05 ± 0.043
HT1080, 0.00457 µM	1.01 ± 0.041
HT1080, 0.01372 µM	0.95 ± 0.025
HT1080, 0.04115 µM	0.918 ± 0.036
HT1080, 0.1235 µM	0.936 ± 0.044
HT1080, 0.3704 µM	0.929 ± 0.033
HT1080, 1.111 µM	0.908 ± 0.039
HT1080, 3.333 µM	0.8 ± 0.047
HT1080, 10 µM	0.0491 ± 0.0031
KHOS-240S, 0.00017 µM	1.01 ± 0.043
KHOS-240S, 0.00051 µM	0.954 ± 0.06
KHOS-240S, 0.00152 µM	0.886 ± 0.05
KHOS-240S, 0.00457 µM	0.833 ± 0.073
KHOS-240S, 0.01372 µM	0.807 ± 0.066
KHOS-240S, 0.04115 µM	0.802 ± 0.065
KHOS-240S, 0.1235 µM	0.763 ± 0.068
KHOS-240S, 0.3704 µM	0.748 ± 0.072
KHOS-240S, 1.111 µM	0.662 ± 0.11
KHOS-240S, 3.333 µM	0.581 ± 0.14
KHOS-240S, 10 µM	0.222 ± 0.058
KHOS-NP, 0.00017 µM	1.05 ± 0.013
KHOS-NP, 0.00051 µM	1.05 ± 0.026
KHOS-NP, 0.00152 µM	1.03 ± 0.022
KHOS-NP, 0.00457 µM	1.044 ± 0.01
KHOS-NP, 0.01372 µM	1.05 ± 0.025
KHOS-NP, 0.04115 µM	1.036 ± 0.0084
KHOS-NP, 0.1235 µM	1.04 ± 0.017
KHOS-NP, 0.3704 µM	1 ± 0.033
KHOS-NP, 1.111 µM	0.96 ± 0.043
KHOS-NP, 3.333 µM	0.907 ± 0.09
KHOS-NP, 10 µM	0.0158 ± 0.00056
RD-ES, 0.00017 µM	0.908 ± 0.032
RD-ES, 0.00051 µM	0.865 ± 0.076
RD-ES, 0.00152 µM	0.771 ± 0.095
RD-ES, 0.00457 µM	0.745 ± 0.058
RD-ES, 0.01372 µM	0.687 ± 0.098
RD-ES, 0.04115 µM	0.656 ± 0.079
RD-ES, 0.1235 µM	0.625 ± 0.081
RD-ES, 0.3704 µM	0.568 ± 0.081
RD-ES, 1.111 µM	0.526 ± 0.076
RD-ES, 3.333 µM	0.435 ± 0.089
RD-ES, 10 µM	0.107 ± 0.075
SK-ES-1, 0.00017 µM	0.959 ± 0.019
SK-ES-1, 0.00051 µM	0.904 ± 0.031
SK-ES-1, 0.00152 µM	0.8013 ± 0.0064
SK-ES-1, 0.00457 µM	0.707 ± 0.018
SK-ES-1, 0.01372 µM	0.64 ± 0.06
SK-ES-1, 0.04115 µM	0.579 ± 0.012
SK-ES-1, 0.1235 µM	0.52 ± 0.017
SK-ES-1, 0.3704 µM	0.538 ± 0.04
SK-ES-1, 1.111 µM	0.519 ± 0.017
SK-ES-1, 3.333 µM	0.432 ± 0.024
SK-ES-1, 10 µM	0.126 ± 0.034
SW684, 0.00017 µM	1.06 ± 0.057
SW684, 0.00051 µM	1.04 ± 0.038
SW684, 0.00152 µM	0.956 ± 0.075
SW684, 0.00457 µM	0.919 ± 0.05
SW684, 0.01372 µM	0.799 ± 0.027
SW684, 0.04115 µM	0.711 ± 0.029
SW684, 0.1235 µM	0.752 ± 0.051
SW684, 0.3704 µM	0.79 ± 0.026
SW684, 1.111 µM	0.767 ± 0.038
SW684, 3.333 µM	0.767 ± 0.015
SW684, 10 µM	-0.00523 ± 0.0025
SW872, 0.00017 µM	0.85 ± 0.035
SW872, 0.00051 µM	0.805 ± 0.063
SW872, 0.00152 µM	0.759 ± 0.04
SW872, 0.00457 µM	0.682 ± 0.037
SW872, 0.01372 µM	0.643 ± 0.063
SW872, 0.04115 µM	0.594 ± 0.026
SW872, 0.1235 µM	0.569 ± 0.045
SW872, 0.3704 µM	0.553 ± 0.041
SW872, 1.111 µM	0.516 ± 0.048
SW872, 3.333 µM	0.518 ± 0.031
SW872, 10 µM	0.461 ± 0.015
SW982, 0.00017 µM	0.921 ± 0.087
SW982, 0.00051 µM	0.828 ± 0.022
SW982, 0.00152 µM	0.724 ± 0.025
SW982, 0.00457 µM	0.667 ± 0.032
SW982, 0.01372 µM	0.657 ± 0.059
SW982, 0.04115 µM	0.657 ± 0.059
SW982, 0.1235 µM	0.626 ± 0.045
SW982, 0.3704 µM	0.595 ± 0.057
SW982, 1.111 µM	0.562 ± 0.063
SW982, 3.333 µM	0.473 ± 0.076
SW982, 10 µM	0.385 ± 0.063
SW1353, 0.00017 µM	0.892 ± 0.051
SW1353, 0.00051 µM	0.859 ± 0.059
SW1353, 0.00152 µM	0.827 ± 0.1
SW1353, 0.00457 µM	0.781 ± 0.1
SW1353, 0.01372 µM	0.745 ± 0.12
SW1353, 0.04115 µM	0.72 ± 0.06
SW1353, 0.1235 µM	0.68 ± 0.046
SW1353, 0.3704 µM	0.664 ± 0.027
SW1353, 1.111 µM	0.63 ± 0.046
SW1353, 3.333 µM	0.602 ± 0.05
SW1353, 10 µM	0.149 ± 0.013
SYO-1, 0.00017 µM	0.884 ± 0.038
SYO-1, 0.00051 µM	0.877 ± 0.065
SYO-1, 0.00152 µM	0.878 ± 0.035
SYO-1, 0.00457 µM	0.83 ± 0.063
SYO-1, 0.01372 µM	0.798 ± 0.065
SYO-1, 0.04115 µM	0.749 ± 0.062
SYO-1, 0.1235 µM	0.687 ± 0.056
SYO-1, 0.3704 µM	0.633 ± 0.051
SYO-1, 1.111 µM	0.589 ± 0.024
SYO-1, 3.333 µM	0.544 ± 0.045
SYO-1, 10 µM	0.323 ± 0.017
